Assay results as given in US9738634B2, “Heterocyclic amide compound and herbicide” (SYNGENTA PARTICIPATIONS AG, priority 2013, dated 2017).

Legend:
Format in all cases: in vivo
[1] = test system: barnyard grass; test: Test Example 1: weedkilling efficacy, preemergent weed treatment in the submerged state; A: barnyard grass; conditions: treatment dosage 1000 g/ha
Summary of the method: (§1)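 Visual scores against set criteria were taken 3 weeks after treatment. Compounds, as diluted emulsions at specified g/ha, went onto the water surface of 4 cm-flooded alluvial soil pots on the day weeds were sown and 2.5-leaf rice was transplanted; greenhouse held 25–30 °C.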

[2] = test system: bulrush; test: Test Example 1: weedkilling efficacy, preemergent weed treatment in the submerged state; B: bulrush; conditions: treatment dosage 1000 g/ha
Summary of the method: as §1

[3] = test system: oval-leafed pondweed; test: Test Example 1: weedkilling efficacy, preemergent weed treatment in the submerged state; C: oval-leafed pondweed; conditions: treatment dosage 1000 g/ha
Summary of the method: as §1

[4] = test system: transplanted rice; test: Test Example 1: preemergent weed treatment in the submerged state, effect on crop; a: transplanted rice; conditions: treatment dosage 1000 g/ha
Summary of the method: as §1

[5] = test system: barnyard grass; test: Test Example 2: weedkilling efficacy, growth period weed treatment in the submerged state; A: barnyard grass; conditions: treatment dosage 1000 g/ha
Summary of the method: (§2)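 Barnyard grass, bulrush and oval-leafed pondweed sown in alluvial soil under 4 cm flooding, greenhouse 25 to 30° C. At 1-2 leaf stage, water-diluted emulsion applied to the water surface at stated g/ha dosages; effects scored 3 weeks later.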

[6] = test system: bulrush; test: Test Example 2: weedkilling efficacy, growth period weed treatment in the submerged state; B: bulrush; conditions: treatment dosage 1000 g/ha
Summary of the method: as §2

[7] = test system: oval-leafed pondweed; test: Test Example 2: weedkilling efficacy, growth period weed treatment in the submerged state; C: oval-leafed pondweed; conditions: treatment dosage 1000 g/ha
Summary of the method: as §2

[8] = test system: crabgrass; test: Test Example 3: weedkilling efficacy through soil treatment; D: crabgrass; conditions: treatment dosage 1250 g/ha
Summary of the method: (§3)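 Crop and weed responses were judged three weeks after a uniform surface spray of the water-diluted emulsion at the given g/ha rate. Seeds sat beneath about 1.5 cm of sterilized diluvial soil, and boxes stood in a greenhouse at 25 to 30° C.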

[9] = test system: green foxtail; test: Test Example 3: weedkilling efficacy through soil treatment; E: green foxtail; conditions: treatment dosage 1250 g/ha
Summary of the method: as §3

[10] = test system: wild oat; test: Test Example 3: weedkilling efficacy through soil treatment; G: wild oat; conditions: treatment dosage 1250 g/ha
Summary of the method: as §3

[11] = test system: black-grass; test: Test Example 3: weedkilling efficacy through soil treatment; H: black-grass; conditions: treatment dosage 1250 g/ha
Summary of the method: as §3

[12] = test system: Italian ryegrass; test: Test Example 3: weedkilling efficacy through soil treatment; I: Italian ryegrass; conditions: treatment dosage 1250 g/ha
Summary of the method: as §3

[13] = test system: Indian mallow; test: Test Example 3: weedkilling efficacy through soil treatment; K: Indian mallow; conditions: treatment dosage 1250 g/ha
Summary of the method: as §3

[14] = test system: redroot pigweed; test: Test Example 3: weedkilling efficacy through soil treatment; L: redroot pigweed; conditions: treatment dosage 1250 g/ha
Summary of the method: as §3

[15] = test system: fig-leafed goosefoot; test: Test Example 3: weedkilling efficacy through soil treatment; M: fig-leafed goosefoot; conditions: treatment dosage 1250 g/ha
Summary of the method: as §3

[16] = test system: chickweed; test: Test Example 3: weedkilling efficacy through soil treatment; N: chickweed; conditions: treatment dosage 1250 g/ha
Summary of the method: as §3

[17] = test system: catchweed; test: Test Example 3: weedkilling efficacy through soil treatment; O: catchweed; conditions: treatment dosage 1250 g/ha
Summary of the method: as §3

[18] = test system: birds-eye speedwell; test: Test Example 3: weedkilling efficacy through soil treatment; p: birds-eye speedwell; conditions: treatment dosage 1250 g/ha
Summary of the method: as §3

[19] = test system: directly sown rice; test: Test Example 3: soil treatment, effect on crop; b: directly sown rice; conditions: treatment dosage 1250 g/ha
Summary of the method: as §3

[20] = test system: corn; test: Test Example 3: soil treatment, effect on crop; c: corn; conditions: treatment dosage 1250 g/ha
Summary of the method: as §3

[21] = test system: soybean; test: Test Example 3: soil treatment, effect on crop; d: soybean; conditions: treatment dosage 1250 g/ha
Summary of the method: as §3

[22] = test system: wheat; test: Test Example 3: soil treatment, effect on crop; e: wheat; conditions: treatment dosage 1250 g/ha
Summary of the method: as §3

[23] = test system: beet; test: Test Example 3: soil treatment, effect on crop; f: beet; conditions: treatment dosage 1250 g/ha
Summary of the method: as §3

[24] = test system: crabgrass; test: Test Example 4: weedkilling efficacy by foliar treatment; D: crabgrass; conditions: treatment dosage 1250 g/ha
Summary of the method: (§4)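 Seeds are spot-sown into sterilized diluvial soil and covered with about 1.5 cm of soil. After 14 days' greenhouse growth at 25 to 30° C, plants are sprayed on stems and leaves with diluted emulsion at the stated g/ha rate, then scored at 3 weeks.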

[25] = test system: green foxtail; test: Test Example 4: weedkilling efficacy by foliar treatment; E: green foxtail; conditions: treatment dosage 1250 g/ha
Summary of the method: as §4

[26] = test system: wild oat; test: Test Example 4: weedkilling efficacy by foliar treatment; G: wild oat; conditions: treatment dosage 1250 g/ha
Summary of the method: as §4

[27] = test system: black-grass; test: Test Example 4: weedkilling efficacy by foliar treatment; H: black-grass; conditions: treatment dosage 1250 g/ha
Summary of the method: as §4

[28] = test system: Italian ryegrass; test: Test Example 4: weedkilling efficacy by foliar treatment; I: Italian ryegrass; conditions: treatment dosage 1250 g/ha
Summary of the method: as §4

[29] = test system: Indian mallow; test: Test Example 4: weedkilling efficacy by foliar treatment; K: Indian mallow; conditions: treatment dosage 1250 g/ha
Summary of the method: as §4

[30] = test system: redroot pigweed; test: Test Example 4: weedkilling efficacy by foliar treatment; L: redroot pigweed; conditions: treatment dosage 1250 g/ha
Summary of the method: as §4

[31] = test system: fig-leafed goosefoot; test: Test Example 4: weedkilling efficacy by foliar treatment; M: fig-leafed goosefoot; conditions: treatment dosage 1250 g/ha
Summary of the method: as §4

[32] = test system: chickweed; test: Test Example 4: weedkilling efficacy by foliar treatment; N: chickweed; conditions: treatment dosage 1250 g/ha
Summary of the method: as §4

[33] = test system: catchweed; test: Test Example 4: weedkilling efficacy by foliar treatment; O: catchweed; conditions: treatment dosage 1250 g/ha
Summary of the method: as §4

[34] = test system: birds-eye speedwell; test: Test Example 4: weedkilling efficacy by foliar treatment; p: birds-eye speedwell; conditions: treatment dosage 1250 g/ha
Summary of the method: as §4

[35] = test system: directly sown rice; test: Test Example 4: foliar treatment, effect on crop; b: directly sown rice; conditions: treatment dosage 1250 g/ha
Summary of the method: as §4

[36] = test system: corn; test: Test Example 4: foliar treatment, effect on crop; c: corn; conditions: treatment dosage 1250 g/ha
Summary of the method: as §4

[37] = test system: soybean; test: Test Example 4: foliar treatment, effect on crop; d: soybean; conditions: treatment dosage 1250 g/ha
Summary of the method: as §4

[38] = test system: wheat; test: Test Example 4: foliar treatment, effect on crop; e: wheat; conditions: treatment dosage 1250 g/ha
Summary of the method: as §4

[39] = test system: beet; test: Test Example 4: foliar treatment, effect on crop; f: beet; conditions: treatment dosage 1250 g/ha
Summary of the method: as §4

## CC1=C(c2cccnc2Cl)C(=O)N(C(C)(C)C(=O)Nc2cccc(Cl)n2)CO1 [B-2-20]
[1]
  A (barnyard grass) weedkilling efficacy grade: 5 (weed kill ratio 90% or more, (practically complete withering))
[2]
  B (bulrush) weedkilling efficacy grade: 5 (weed kill ratio 90% or more, (practically complete withering))
[3]
  C (oval-leafed pondweed) weedkilling efficacy grade: 4 (weed kill ratio 70% or more, less than 90%)
[4]
  a (transplanted rice) effect on crop grade: 0 (weed kill ratio 5% or less (practically no effect))
[5]
  A (barnyard grass) weedkilling efficacy grade: 1 (weed kill ratio 5% or more, less than 20%)
[6]
  B (bulrush) weedkilling efficacy grade: 5 (weed kill ratio 90% or more, (practically complete withering))
[7]
  C (oval-leafed pondweed) weedkilling efficacy grade: 3 (weed kill ratio 40% or more, less than 70%)
[8]
  D (crabgrass) weedkilling efficacy grade: 3 (weed kill ratio 40% or more, less than 70%)
[9]
  E (green foxtail) weedkilling efficacy grade: 5 (weed kill ratio 90% or more, (practically complete withering))
[10]
  G (wild oat) weedkilling efficacy grade: 0 (weed kill ratio 5% or less (practically no effect))
[11]
  H (black-grass) weedkilling efficacy grade: 5 (weed kill ratio 90% or more, (practically complete withering))
[12]
  I (Italian ryegrass) weedkilling efficacy grade: 5 (weed kill ratio 90% or more, (practically complete withering))
[13]
  K (Indian mallow) weedkilling efficacy grade: 2 (weed kill ratio 20% or more, less than 40%)
[14]
  L (redroot pigweed) weedkilling efficacy grade: 4 (weed kill ratio 70% or more, less than 90%)
[15]
  M (fig-leafed goosefoot) weedkilling efficacy grade: 4 (weed kill ratio 70% or more, less than 90%)
[16]
  N (chickweed) weedkilling efficacy grade: 3 (weed kill ratio 40% or more, less than 70%)
[17]
  O (catchweed) weedkilling efficacy grade: 0 (weed kill ratio 5% or less (practically no effect))
[18]
  P (birds-eye speedwell) weedkilling efficacy grade: 4 (weed kill ratio 70% or more, less than 90%)
[19]
  b (directly sown rice) effect on crop grade: 4 (weed kill ratio 70% or more, less than 90%)
[20]
  c (corn) effect on crop grade: 0 (weed kill ratio 5% or less (practically no effect))
[21]
  d (soybean) effect on crop grade: 0 (weed kill ratio 5% or less (practically no effect))
[22]
  e (wheat) effect on crop grade: 0 (weed kill ratio 5% or less (practically no effect))
[23]
  f (beet) effect on crop grade: 4 (weed kill ratio 70% or more, less than 90%)
[24]
  D (crabgrass) weedkilling efficacy grade: 5 (weed kill ratio 90% or more, (practically complete withering))
[25]
  E (green foxtail) weedkilling efficacy grade: 5 (weed kill ratio 90% or more, (practically complete withering))
[26]
  G (wild oat) weedkilling efficacy grade: 0 (weed kill ratio 5% or less (practically no effect))
[27]
  H (black-grass) weedkilling efficacy grade: 4 (weed kill ratio 70% or more, less than 90%)
[28]
  I (Italian ryegrass) weedkilling efficacy grade: 4 (weed kill ratio 70% or more, less than 90%)
[29]
  K (Indian mallow) weedkilling efficacy grade: 0 (weed kill ratio 5% or less (practically no effect))
[30]
  L (redroot pigweed) weedkilling efficacy grade: 3 (weed kill ratio 40% or more, less than 70%)
[31]
  M (fig-leafed goosefoot) weedkilling efficacy grade: 3 (weed kill ratio 40% or more, less than 70%)
[32]
  N (chickweed) weedkilling efficacy grade: 2 (weed kill ratio 20% or more, less than 40%)
[33]
  O (catchweed) weedkilling efficacy grade: 0 (weed kill ratio 5% or less (practically no effect))
[34]
  P (birds-eye speedwell) weedkilling efficacy grade: 4 (weed kill ratio 70% or more, less than 90%)
[35]
  b (directly sown rice) effect on crop grade: 0 (weed kill ratio 5% or less (practically no effect))
[36]
  c (corn) effect on crop grade: 1 (weed kill ratio 5% or more, less than 20%)
[37]
  d (soybean) effect on crop grade: 3 (weed kill ratio 40% or more, less than 70%)
[38]
  e (wheat) effect on crop grade: 0 (weed kill ratio 5% or less (practically no effect))
[39]
  f (beet) effect on crop grade: 4 (weed kill ratio 70% or more, less than 90%)
